Experimental data: patent US20260248799A1, “COMBINATIONS OF RETINALDEHYDE DEHYDROGENASE 1 (RALDH1) INHIBITORS AND IMMUNOSTIMULATORS AND METHODS USING SAME” (The Trustees of the University of Pennsylvania, priority 2023, published 2026)

Key:
[1] = Chow PK of C86, 15-day study in CD-1 mice; format: in vivo, mouse; conditions: 15-day period
Protocol: FIG. 31A: Completed blood count (CBC) was performed at IDEXX on whole blood collected from indicated RALDH1 genotypes (X-axis). One experiment with four replicates per experimental group. One-way ANOVA. *p<0.05, **p<0.01, ***p<0.001. FIG. 31B: Weights of mice of the indicated RALDH1 genotypes. Siblings were used for all genotypes to control for confounding factors. One experiment with four replicates per experimental group. One-way ANOVA. *p<0.05, **p<0.01, ***p<0.001. […] Diet (or PO) #A, B, and C (shown in the inbox of individual graphs) corresponds to drug dose of 10, 30, and 60 mg/kg respectively. Mice had free access to food and water during the 15-day study.
The PK studies were done at NIH or a commercial CRO—Pharmacon using their in-house standard protocol. […] For C99, IV and PO, performed at NIH using CD-1 mice; formulation: 20% HPbCD in saline.

[2] = molecular target: T1, Cholinesterase, Acetyl, ACES (Homo sapiens, UniProt P22303); assay: Safetyscreen: Acetyl cholinesterase; format: biochemical; conditions: read-out: % Inh. Cholinesterase, Acetyl, ACES
T1 construct: Eurofins Cerep Panlabs (contract panel)

[3] = molecular target: T2, Serotonin (5-Hydroxytryptamine) 5-HT2A (Homo sapiens, UniProt P28223); assay: Safetyscreen: 5-HT2A; format: binding; conditions: read-out: % Inh. Serotonin (5-Hydroxytryptamine) 5-HT2A
T2 construct: Eurofins Cereps Panlabs (contract panel)

[4] = molecular target: T3, Melanocortin MC4 (Homo sapiens, UniProt P32245); assay: Safetyscreen: MC4; format: binding; conditions: read-out: % Inh. Melanocortin MC4
T3 construct: Eurofins Cereps Panlabs (contract panel)

[5] = molecular target: T4, Peptidase, Angiotensin Converting Enzyme (Oryctolagus cuniculus, UniProt P12822); assay: Safetyscreen: ACE; format: biochemical, rabbit; conditions: read-out: % Inh. Peptidase, Angiotensin Converting Enzyme
T4 construct: Eurofins Cerep Panlabs (contract panel)

[6] = molecular target: T5, Transporter, GABA (Rattus norvegicus, UniProt P23978); assay: Safetyscreen: GABA transporter; format: binding; conditions: read-out: % Inh. Transporter, GABA
T5 construct: purchased Eurofins Cereps Panlabs

[7] = molecular target: T6, Serotonin (5-Hydroxytryptamine) 5-HT2C (Homo sapiens, UniProt P28335); assay: Safetyscreen: 5-HT2C; format: binding; conditions: read-out: % Inh. Serotonin (5-Hydroxytryptamine) 5-HT2C
T6 construct: Eurofins Cereps Panlabs (contract panel)

[8] = molecular target: T7, Muscarinic M3 (Homo sapiens, UniProt P20309); assay: Safetyscreen: Muscarinic M3; format: binding; conditions: read-out: % Inh. Muscarinic M3
T7 construct: Eurofins Cereps Panlabs (contract panel)

[9] = system: Calcium Channel L-Type, Dihydropyridine; assay: Safetyscreen: Ca channel L-type, dihydropyridine; format: binding, rat; conditions: 10 μM
[10] = molecular target: T8, Histamine H2 (Homo sapiens, UniProt P25021); assay: Safetyscreen: Histamine H2; format: binding; conditions: read-out: % Inh. Histamine H2
T8 construct: purchased Eurofins Cereps Panlabs

[11] = molecular target: T9, Adrenergic α1A (Rattus norvegicus, UniProt P43140); assay: Safetyscreen: Adrenergic α1A; format: binding; conditions: read-out: % Inh. Adrenergic α1A
T9 construct: Eurofins Cerep Panlabs (contract panel)

[12] = system: macrophages from primary human monocytes; assay: Numbers of live monocyte-derived macrophages in vitro; format: cell-based; conditions: C86 treated TCM or BMS493; three days
Protocol: FIGS. 24A-24E: Raldh1-INH blocks tumor supportive functions of monocytes and macrophages. FIG. 24A: Circulating primary human monocytes were collected from donors and cultured with MCSF (50 ng/mL) to generate macrophages. On day 3 of these cultures, DMSO or RA (100 nmol/L) was added to generate control monocyte-derived macrophages (Control-MoDM) or RA monocyte-derived macrophages (RA-MoDM), respectively. On day 7 of these cultures, macrophages were collected for each well after washing with 1×PBS, mixed with Huh7 cells at approximately 50:50 ratio, and the mix injected into the flanks of NU/J mice. Huh7 tumors cells that were not mixed with any macrophages before flank injection served as an additional control. Tumor volume was measured every 2 days (left graph). 19 days after tumor injection, mice were sacrificed and tumor weight (right graph) was measured. […] Three or more independent experiments were performed with at least three replicates per experimental group. Unpaired t test, two-tailed. […] Tumor growth was monitored daily (left graph). 13 days after tumor cell transplantation, mice were sacrificed and tumor weight measured (right graph). […] Three days later, cells were harvested, counted, and stained with PI for FCS analyses. […] Cell proliferation was measured by counting live cell numbers (y-axis). […] 72 hours later, the cells were washed, counted, and analyzed by FCS. […]

T3 sequence (P32245 whole entry): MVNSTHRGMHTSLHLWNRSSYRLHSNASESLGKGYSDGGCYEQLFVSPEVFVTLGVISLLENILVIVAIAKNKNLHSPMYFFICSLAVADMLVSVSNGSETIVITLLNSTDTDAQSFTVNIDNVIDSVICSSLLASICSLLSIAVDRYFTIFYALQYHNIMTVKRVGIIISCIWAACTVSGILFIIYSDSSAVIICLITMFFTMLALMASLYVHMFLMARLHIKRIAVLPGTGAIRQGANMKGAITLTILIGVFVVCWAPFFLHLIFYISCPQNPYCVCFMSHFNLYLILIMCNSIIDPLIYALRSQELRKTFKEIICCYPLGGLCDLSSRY
T9 sequence (P43140 whole entry): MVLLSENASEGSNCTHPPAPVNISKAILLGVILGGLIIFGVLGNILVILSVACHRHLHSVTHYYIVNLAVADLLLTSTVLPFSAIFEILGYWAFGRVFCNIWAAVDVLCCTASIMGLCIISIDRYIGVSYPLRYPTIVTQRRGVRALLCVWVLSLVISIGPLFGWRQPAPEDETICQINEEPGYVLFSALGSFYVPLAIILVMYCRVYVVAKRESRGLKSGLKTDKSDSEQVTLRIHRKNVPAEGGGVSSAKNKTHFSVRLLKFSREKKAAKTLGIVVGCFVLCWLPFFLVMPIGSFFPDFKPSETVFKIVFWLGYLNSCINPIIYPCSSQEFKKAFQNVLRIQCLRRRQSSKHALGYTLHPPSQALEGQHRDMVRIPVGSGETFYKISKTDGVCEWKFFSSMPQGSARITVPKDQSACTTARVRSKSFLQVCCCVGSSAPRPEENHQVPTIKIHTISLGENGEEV
T1 sequence (P22303 32-614): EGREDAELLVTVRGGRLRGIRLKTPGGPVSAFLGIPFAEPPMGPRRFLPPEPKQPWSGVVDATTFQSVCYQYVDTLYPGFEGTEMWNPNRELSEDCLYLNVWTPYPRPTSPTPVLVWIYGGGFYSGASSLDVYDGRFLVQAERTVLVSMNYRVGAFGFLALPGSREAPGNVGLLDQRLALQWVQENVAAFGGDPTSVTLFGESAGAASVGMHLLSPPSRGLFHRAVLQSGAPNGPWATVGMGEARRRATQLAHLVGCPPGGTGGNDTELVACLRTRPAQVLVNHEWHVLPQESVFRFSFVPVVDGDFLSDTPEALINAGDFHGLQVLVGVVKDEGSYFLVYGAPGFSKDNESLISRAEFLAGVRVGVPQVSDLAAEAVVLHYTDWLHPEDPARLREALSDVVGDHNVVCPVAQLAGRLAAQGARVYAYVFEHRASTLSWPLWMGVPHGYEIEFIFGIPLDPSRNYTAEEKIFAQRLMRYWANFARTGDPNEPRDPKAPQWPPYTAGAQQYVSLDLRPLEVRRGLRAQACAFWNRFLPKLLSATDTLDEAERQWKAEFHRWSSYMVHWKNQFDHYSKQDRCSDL
T8 sequence (P25021 whole entry): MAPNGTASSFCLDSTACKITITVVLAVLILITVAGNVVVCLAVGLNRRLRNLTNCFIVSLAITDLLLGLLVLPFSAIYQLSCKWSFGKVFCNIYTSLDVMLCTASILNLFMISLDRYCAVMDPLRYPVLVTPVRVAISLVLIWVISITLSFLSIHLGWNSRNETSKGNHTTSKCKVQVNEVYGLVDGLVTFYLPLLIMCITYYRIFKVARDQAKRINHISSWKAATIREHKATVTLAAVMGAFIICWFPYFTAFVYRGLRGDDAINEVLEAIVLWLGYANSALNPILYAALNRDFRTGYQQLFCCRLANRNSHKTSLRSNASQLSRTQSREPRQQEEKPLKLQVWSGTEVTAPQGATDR
T7 sequence (P20309 whole entry): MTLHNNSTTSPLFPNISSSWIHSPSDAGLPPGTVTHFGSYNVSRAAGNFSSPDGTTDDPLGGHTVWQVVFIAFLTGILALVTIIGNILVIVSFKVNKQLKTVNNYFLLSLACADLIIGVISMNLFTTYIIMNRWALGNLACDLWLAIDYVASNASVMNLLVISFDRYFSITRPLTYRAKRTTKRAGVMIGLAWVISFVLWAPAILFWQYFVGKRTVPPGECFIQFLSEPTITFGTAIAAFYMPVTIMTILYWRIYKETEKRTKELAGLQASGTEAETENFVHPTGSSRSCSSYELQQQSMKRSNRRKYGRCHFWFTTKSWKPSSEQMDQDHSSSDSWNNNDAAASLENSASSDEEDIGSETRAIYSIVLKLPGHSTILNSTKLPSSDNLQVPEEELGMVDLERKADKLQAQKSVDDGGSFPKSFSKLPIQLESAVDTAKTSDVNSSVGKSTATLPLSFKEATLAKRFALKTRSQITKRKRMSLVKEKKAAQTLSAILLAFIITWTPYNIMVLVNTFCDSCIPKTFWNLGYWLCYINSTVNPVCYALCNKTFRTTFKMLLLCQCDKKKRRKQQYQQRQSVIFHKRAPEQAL
T2 sequence (P28223 whole entry): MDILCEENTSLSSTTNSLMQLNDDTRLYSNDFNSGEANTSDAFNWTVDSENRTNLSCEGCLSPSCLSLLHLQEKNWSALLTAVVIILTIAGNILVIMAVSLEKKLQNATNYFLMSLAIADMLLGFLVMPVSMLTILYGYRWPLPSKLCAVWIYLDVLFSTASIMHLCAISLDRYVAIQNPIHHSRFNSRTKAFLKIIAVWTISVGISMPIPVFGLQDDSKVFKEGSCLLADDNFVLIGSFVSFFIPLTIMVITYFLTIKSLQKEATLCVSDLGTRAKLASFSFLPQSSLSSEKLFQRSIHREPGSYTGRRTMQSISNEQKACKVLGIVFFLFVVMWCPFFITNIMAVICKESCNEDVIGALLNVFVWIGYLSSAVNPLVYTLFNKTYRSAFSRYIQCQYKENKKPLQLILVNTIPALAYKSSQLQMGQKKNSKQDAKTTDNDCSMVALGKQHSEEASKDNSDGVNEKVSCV
T6 sequence (P28335 33-458): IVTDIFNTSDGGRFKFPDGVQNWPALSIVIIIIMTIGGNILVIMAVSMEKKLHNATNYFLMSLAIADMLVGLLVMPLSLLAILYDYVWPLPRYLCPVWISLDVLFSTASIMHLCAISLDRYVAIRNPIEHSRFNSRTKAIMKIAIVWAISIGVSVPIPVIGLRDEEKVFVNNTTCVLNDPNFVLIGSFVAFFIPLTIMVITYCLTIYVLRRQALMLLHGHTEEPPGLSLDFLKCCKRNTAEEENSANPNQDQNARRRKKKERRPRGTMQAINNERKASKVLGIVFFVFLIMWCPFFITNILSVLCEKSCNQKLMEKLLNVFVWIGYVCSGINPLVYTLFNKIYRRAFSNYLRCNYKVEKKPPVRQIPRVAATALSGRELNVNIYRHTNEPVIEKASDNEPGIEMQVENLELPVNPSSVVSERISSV

In the case of `CS(=O)(=O)N1CCN(C(=O)c2cnc3ccc(F)cc3c2N2CCC(C#N)(c3ccccc3)CC2)CC1` [Compound C-86, 1-(6-fluoro-3-(4-(methylsulfonyl)piperazine-1-carbonyl)quinolin-4-yl)-4-phenylpiperidine-4-carbonitrile], the “drug exposure over time” value ([1]; chow, 10, 30 and 60 mg/kg) is reported as “consistent drug exposure over time”, the body weight ([1]; chow) is reported as “without affecting body weight” and the inhibition at 10 µM [2] is reported as 3%. The inhibition at 10 µM [3] was 36%, the inhibition at 10 µM [4] was 13% and the inhibition at 10 µM [5] was -6%. It also gave an inhibition at 10 µM [6] of 4%, an inhibition at 10 µM [7] of 22% and an inhibition at 10 µM [8] of 5%. The “% Inh. Calcium Channel L-Type, Dihydropyridine” value [9] was 23%, the inhibition at 10 µM [10] was -3% and the inhibition at 10 µM [11] was 6%. The “RA and tumor-CM induced increase in macrophage numbers” value [12] was “reversed”.
